Source: patent publication US20210220331A1, “INHIBITORS OF IRES-MEDIATED PROTEIN SYNTHESIS” (The Regents of the University of California, priority 2016, published 2021)

What was measured:
human c-myc IRES = experiment: Dicistronic IRES mRNA reporter assay (firefly luciferase), c-myc IRES; assay type: cell-based; conditions: for c-myc (decrease): fold decrease in PP242-induced c-MYC IRES activity: LN229, relative to values obtained with parent compound C11
Method: Western blot and quantitative RT-PCR analyses were performed as previously described (19). For Western blotting, cells or tissues were lysed in RIPA (lysis) buffer containing protease inhibitor cocktail and phosSTOP phosphatase inhibitor cocktail (Roche) and extracts resolved by SDSPAGE. Proteins were transferred to PVDF membranes and incubated with the indicated antibodies. For IRES reporter assays, the indicated mRNA reporters were cotransfected into cells with pSVβ-galactosidase to normalize for transfection efficiency as described previously (16). Cells were harvested 18 h following transfection and Renilla, firefly and β-galactosidase activities determined using the Dual-Glo Luciferase and β-galactosidase assay systems (Promega).
(B) Schematic diagrams of the dicistronic constructs used in this study. Constructs used are pRF, pRCD1F, which contains the human cyclin D1 IRES, pRmycF, containing the human c-myc IRES, pRp27F, containing the human p27Kip1 IRES and pRECMVF, containing the IRES from encephalomyocarditis virus. (C) Relative Renilla and firefly luciferase activities obtained from LN229 GBM cells transfected with the indicated constructs in the absence or presence of the inhibitor C11. The mean and +SD are shown for three independent experiments. […] (D) RNA-pull down assays utilizing biotinylated cyclin D1 or c-MYC IRES RNAs. Cytoplasmic extracts of LN229 cells treated with C11 (50 nM) as indicated were incubated with biotinylated cyclin D1 or c-MYC IRES RNAs and precipitated with streptavidin-Sepharose beads. Input and bound fractions were analyzed by immunoblotting using hnRNP A1 antibodies. […] RT-PCR measurements were performed in quadruplicate and the mean and +S.D. are shown. […] (F) Top panel, LN229 cells were treated with C11 as indicated and RT-PCR splicing analysis for Max exon 5 performed as described in the Experimental Methods section. Middle panel, LN229 cells treated with C11 (50 nM) as indicated, were lysed and immunoprecipitated using either eIF-4E or control IgG antibodies. Bound CCND1 or c-MYC RNAs were detected via RT-PCR. The mean and +S.D. are shown for three independent experiments. Bottom panel, cyclin D1 and c-MYC protein levels from the indicated GBM cell lines in the absence or presence of C11 at 24 h following treatment. C11 specifically blocks c-Myc IRES-mediated translation initiation by disrupting the ITAF hnRNP A1-IRES interaction.
Several dicistronic IRES mRNA reporter constructs were utilized, shown in FIG. 1B, in which the indicated IRES sequences were inserted within the intercistronic region. LN229 cells transiently transfected with these constructs were assayed for Renilla and firefly luciferase activities, which are readouts of cap-dependent and IRES-mediated translation initiation, respectively (16). […]

hnRNP A1 [1] = target: T1, hnRNP A1 (Homo sapiens, UniProt P09651); experiment: Photo-cross-linked inhibitor bead binding assay; conditions: vs control beads, anti-GST immunoblot
T1 construct: pGEX-2T/hnRNP A1 (full length hnRNP A1) and pGEX-2T/UP1 GST fusions; made in house; host or cells: HEK293 cells
Method: (§1) Photo-cross-linked C11 and IRES-J007 beads were prepared as previously described (25). Activated Sepharose beads were washed three times with 1 mM aqueous HCl followed by coupling solution (100 mM NaHCO3 and 50% dioxane mixture). A solution of photoaffinity linker in coupling solution was subsequently added to the beads and incubated at 37° C. for 2 h. After washing five times with coupling solution the beads were blocked and placed in a spin column and washed three times with water and methanol. The beads were subsequently irradiated in a UV cross-linker at 365 nm (4 J/cm2) and washed with methanol. Purified GST-tagged native or mutant hnRNP A1 proteins were added to 20 μl of C11 or J007 cross-linked or control uncross-linked beads. After incubating at 4° C. for 24 h, the beads were washed three times and bound proteins eluted in 10% SDS-PAGE sample buffer at 100° C. for 5 min. and the eluted proteins were resolved by SDS-PAGE and immunoblotted using GST antibodies.
(§2) The configurations with the most favorable binding energies were visualized using PyMOL v1.5.6. The electrostatic surface representation of the crystal structure of UP1 is shown with RNP residues of RRM1 and RRM2 labeled in blue. In the 90°-rotated model, the inhibitor interaction pocket is shown in yellow. The inset is a close-up of C11 and IRES-J007 binding to the potential binding site on UP1. Residues predicted to interact with the inhibitors are labeled. (B) Purified GST-tagged wild-type hnRNP A1 (A1) and mutant A1 (4ΔA1) proteins harboring alanine substitutions at all four potential binding sites (120, 123,124 and 171) were added to uncross-linked, C11 and J007-cross-linked beads. Isolated wild-type (A1) and mutant (4ΔA1) proteins were resolved by SDS-PAGE and silver-stained to monitor purity (top panels). The binding of A1 to control, C11 and J007 beads was detected by immunoblotting with GST antibodies (bottom panel). (C) Inhibition of basal IRES activity in 293T cells upon treatment with C11 or IRES-J007. IRES reporter activity was assessed following 24 h treatment with 50 nM concentrations of each inhibitor as indicated. The mean and +SD are shown for three independent experiments. (D) RNA-pull down assays utilizing biotinylated cyclin D1 or c-MYC IRES RNAs of 293T cell extracts treated with the inhibitors as in FIG. 2C.
(§3) To further examine how C11 and IRES-J007 inhibit hnRNP A1 function, used in silico docking analysis was used to create a potential model for the binding of these inhibitors to UP1. […] The purified proteins were then incubated with control, C11 or J007 beads and binding analyzed by immunoblotting using anti-GST antibodies. […]

hnRNP A1 [2] = target: T2, hnRNP A1 (Homo sapiens, UniProt P09651, D123A/H120A/N171A/Y124A); experiment: Photo-cross-linked inhibitor bead binding assay; conditions: alanine substitutions at 120, 123, 124 and 171
T2 construct: pGEX-2T/hnRNP A1 (full length hnRNP A1) and pGEX-2T/UP1 GST fusions; made in house; host or cells: HEK293 cells
Method: as §1, §2, §3

T2 sequence (P09651 whole entry H120A/D123A/Y124A/N171A, the tested form may be a part): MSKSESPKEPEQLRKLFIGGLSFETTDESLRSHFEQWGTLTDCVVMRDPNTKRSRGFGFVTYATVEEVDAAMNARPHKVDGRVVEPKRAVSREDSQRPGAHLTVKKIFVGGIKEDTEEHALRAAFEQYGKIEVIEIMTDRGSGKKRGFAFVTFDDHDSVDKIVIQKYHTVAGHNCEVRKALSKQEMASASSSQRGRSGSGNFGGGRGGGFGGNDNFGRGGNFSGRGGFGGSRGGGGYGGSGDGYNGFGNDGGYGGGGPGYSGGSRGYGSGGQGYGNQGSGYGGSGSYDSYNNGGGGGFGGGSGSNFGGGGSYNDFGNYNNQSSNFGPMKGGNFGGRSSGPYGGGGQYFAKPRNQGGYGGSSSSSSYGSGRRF
T1 sequence (P09651 whole entry, the tested form may be a part): as the sequence (P09651 whole entry H120A/D123A/Y124A/N171A, the tested form may be a part) above, with A120H, A123D, A124Y, A171N counted along it

| SMILES | c-myc (decrease): fold decrease in PP242-induced c-MYC IRES activity (human c-myc IRES) [fold] | binding of native GST-tagged hnRNP A1 to inhibitor-cross-linked beads (hnRNP A1 [1]) | amount of mutant hnRNP A1 (4ΔA1) bound to inhibitor beads relative to native hnRNP A1 (hnRNP A1 [2]) | mTOR inhibitor-induced c-MYC IRES activity (human c-myc IRES; LN229 cells, cotreatment with rapamycin or PP242) | c-MYC IRES activity (human c-myc IRES; LN229 cells, inhibitor alone) |
| --- | --- | --- | --- | --- | --- |
| COc1ccc(CN2C(=O)c3ccccc3C2=O)c(OC)c1 [IRES-J007, 2-((2,4-Dimethoxyphenyl)methyl)isoindoline-1,3-dione] | 6.51 ± 0.07 | bound | markedly reduced | – | – |
| COc1ccc(CN2C(=O)C(Cl)=C(Cl)C2=O)c(OC)c1 [Compound C11, reference compound] | 1.0 | bound | markedly reduced | significantly inhibited | significantly inhibited |
